In the METLIN SMRT retention time set (Domingo-Almenara et al. 2019):

Assay: gradient 5% acetonitrile 3 min, to 50% in 2 min, to 85% in 15 min, held 3 min, 100 µL/min
Conditions: column: Zorbax Extend-C18 2.1 x 50 mm; eluents: water / acetonitrile, 0.1% formic acid
Method in brief: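 The system's dead and dwell volumes were 40 μL and 900 μL, with a Zorbax Extend-C18 column (2.1 × 50 mm, 1.8 μm) run at 100 μL/min in water and acetonitrile containing 0.1% formic acid each. Pure standards were analyzed in mixtures of ~100 molecules by HPLC–quadrupole time-of-flight mass spectrometry in positive and negative ionization mode. Retention time was assigned from computationally picked, manually inspected adduct peaks.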

SMILES	RP-LC retention time
CC(C)c1nc(-c2ccc(OC3CCN(C(=O)Cc4c[nH]c5ccccc45)C3)cc2)no1 (configuration not stated)	923 s
CC(C)(C)CC(=O)Nc1cnc(-c2cccnc2)nc1	665 s
Clc1ccc(Cc2nnc3sc(-c4ccc5ccccc5n4)nn23)cc1	1210 s
Cc1ccc(NC(=O)Cc2c(C)nn(-c3nc(-c4ccc(C)cc4)cs3)c2C)cc1	1270 s
CCCCC(Sc1nc(=O)[nH]c(C)c1C(=O)OCC)C(=O)O (configuration not stated)	663 s
CC1CCN(C(=O)C2CCN(c3nc4ccc(-c5cccnc5)nc4s3)CC2)CC1	630 s
Cc1ccc(N2C(=O)C3N=NN(Cc4nc(-c5ccccc5Cl)no4)C3C2=O)cc1 (configuration not stated)	996 s
Cc1noc([C@@H]2CN(C(=O)c3ccc(Cc4c(C)noc4C)o3)C[C@H]2C(N)=O)n1	631 s
CCOC(=O)Cc1ccc(NC(=O)N2CCN(c3nc4ccccc4nc3C(F)(F)F)CC2)cc1	1080 s
Fc1ccc(-c2nc(-c3cn(Cc4ccccc4)nn3)no2)cc1	1090 s
CCOc1ccccc1CN1C[C@@H](CO)[C@H](c2ccccn2)C1	620 s
COc1ccc(C2(C(=O)N3CCC4(CC3)N(CC3CC3)C(=O)CS4=O)CC2)cc1 (configuration not stated)	677 s
COc1cccc(-c2cc3c(=O)n(CC(O)c4cccc(C#N)c4)ccn3n2)c1 (configuration not stated)	796 s
COc1ccc(-c2nc(N(CC(C)C)CC(C)C)c3ccccc3n2)cc1	1020 s
CN1C(=O)CO[C@@H](C(=O)Nc2cccc(F)c2)[C@@H]1c1ccccc1	782 s
Cc1cc(-c2cc(S(=O)(=O)N3CCN(C4CCCCC4)CC3)c(C)s2)n[nH]1	657 s
CCOCCCNCc1ccc(-c2ccc(F)cc2)o1	672 s
Cc1csc(-n2nc(C)c(CC(=O)Nc3ccc(F)cc3)c2C)n1	950 s
CCCNC(=O)C1CCCN(c2nc3ncn(CC(=O)Nc4ccc(OCC)cc4)c(=O)c3s2)C1 (configuration not stated)	720 s
Cc1oc(-c2cccc(Cl)c2)nc1CN(c1ccccc1)S(=O)(=O)c1cccs1	1260 s

SMILES	RP-LC retention time
CNC(=O)C1CC(=O)N(C2CCCCC2)C1 (configuration not stated)	609 s
Cn1nc2c(c1NC(=O)c1ccc([N+](=O)[O-])s1)CCC2	698 s
O=C(Cn1ccnc1-c1ccnc(N2CCOCC2)c1)N1CCN(c2ccccc2)CC1	639 s
Cc1nc2cc(-c3noc(-c4ccc(C#N)cc4)n3)ccc2n(C)c1=O	965 s
CCc1ccc(NC(=O)NCc2ccnc(N3CCSCC3)c2)cc1	668 s
Cn1nccc1C(=O)N1CCCC1c1nc(-c2ccc(F)cc2F)no1 (configuration not stated)	794 s
CCOC(=O)c1noc2nc(C)nc(NCCc3ccc(OCC)cc3)c12	1170 s
CC1CCCN(CC2CCN(S(=O)(=O)Cc3c(F)cccc3Cl)CC2)C1 (configuration not stated)	685 s
Nc1cc(C2CCN(C(=O)Nc3cccc(Cl)c3)CC2)no1	727 s
CC1=C(C(=O)N2CCOCC2)C(c2cc(Br)ccc2F)C2=C(CCCC2=O)N1 (configuration not stated)	659 s
CCn1cc(CN(Cc2c(C)nn(C)c2C)C(=O)C2CCN(c3cnn(C)c(=O)c3)C2)cn1 (configuration not stated)	603 s
O=C(COc1ccccc1)Nc1nc(-c2ccc(F)cc2)cs1	1050 s
FC1(c2nc(Cc3ccccc3)no2)CCN(Cc2ccsc2)CC1	708 s
O=C(NCc1cccs1)C1CCN(c2cnc(N3CCSCC3)nc2)CC1	751 s
CN(Cc1ccco1)C(=O)c1ccc2ccnc(N3CCN(c4ccc(Cl)cc4)CC3)c2c1	917 s
CCN(CC)c1nc(C(=O)Nc2ccc(C(C)=O)cc2)nc2nc(C)cc(C)c12	679 s
O=c1c2ccccc2c(-c2nc(-c3ccncc3)no2)cn1-c1ccc(F)cc1	1080 s
COc1ccc(S(=O)(=O)N2CC3CN(C(=O)C(C)Oc4ccccc4)CC(C2)O3)cc1 (configuration not stated)	844 s
COc1ccc(N2C(=O)C3(CCCCC3)C2C(=O)N(C)C)cc1 (configuration not stated)	750 s
Cn1cc(-c2ccc3c(c2)CCN3C(=O)Cc2cccc(C(F)(F)F)c2)c2c(N)ncnc21	867 s

SMILES	RP-LC retention time
CCOCCCNCc1ccc(-c2cccc(Cl)c2)o1	687 s
CCN1CCN(c2ccc(-c3nc(-c4cccc(F)c4)no3)cn2)CC1	698 s
COc1cccc(CNC(=O)N2CCC(CC(=O)NCc3ccccc3)CC2)c1	736 s
CCOC(=O)c1cccc(Nc2c(-c3ccc(Cl)cc3)nc3cnccn23)c1	992 s
CCN1CCN(C(=O)C2CCN(c3nc4cccnc4s3)CC2)CC1	570 s
CCc1ccccc1S(=O)(=O)NCC(c1cccnc1)c1cn(C)c2ccccc12 (configuration not stated)	787 s
O=C(NCc1ccccc1)C1Cc2ccccc2CN1S(=O)(=O)c1ccccc1 (configuration not stated)	981 s
CN(C)CCCn1cc2c(c1-c1cccc(Br)c1)c(=O)n(C)c(=O)n2C	617 s
COc1cccc(NC(=O)Cn2c(=O)c3cc(-c4ccco4)nn3c3ncccc32)c1	807 s
Cc1ccc2[nH]cc(CCNC(=O)CCC(=O)N3Cc4cccn4-c4ccccc43)c2c1	868 s
Cc1ccc(N2CC(C(=O)N3CCC(NS(=O)(=O)c4ccc(C)cc4)CC3)CC2=O)cc1 (configuration not stated)	826 s
CC1(C(=O)NC2CCCCCC2)Cn2c(cc3occc32)C(=O)N1Cc1ccccn1 (configuration not stated)	766 s
Cc1ccccc1-c1nc(C2CCN(S(=O)(=O)c3ccc(C(C)C)cc3)CC2)no1	1340 s
CC(=O)Nc1ccc(C(=O)N2CCC3(CC2)N=C(c2cccc(Br)c2)NO3)cc1	731 s
O=C(O)c1cnc(N2CCCCC2)nc1-c1ccccc1	956 s
O=C(NCc1ccc2c(c1)OCO2)c1c(O)c2cccnc2n(-c2ccc(F)cc2)c1=O	1120 s
Cc1ccc(C)c(N2CCN(c3ccnc(SCC(=O)Nc4ccc(F)cc4F)n3)CC2)c1	1000 s
Cc1nccn1Cc1nc(-c2ccc(F)c(Cl)c2)no1	654 s
CSc1cccc(NC(=O)Cn2cccc(-c3nc(-c4ccc(Cl)cc4)no3)c2=O)c1	1020 s

Next, values leading:

RP-LC retention time	SMILES
848 s	CCOC(=O)c1c(C)[nH]c(C(=O)N2CCCC(C(=O)NCc3cccc(Cl)c3)C2)c1C (configuration not stated)
808 s	COc1cc(Nc2nc(C(=O)N3CCCCC3)cc3occc23)cc(OC)c1OC
751 s	O=c1n(Cc2ccc(F)cc2Cl)nc2n1CCCCC2
923 s	Cc1cccc(NC(=O)NC2CCN(c3ccc(C)c(C)c3)C2=O)c1 (configuration not stated)
616 s	COc1ccc(CN(Cc2ccccc2)Cc2cc(=O)n3cc(C)ccc3n2)cc1OC
984 s	CCNC(=O)N1CCc2c([nH]c3ccc(OC)cc23)C12C(=O)N(C)c1ccccc12 (configuration not stated)
778 s	Cc1cc(Cl)ccc1NC(=O)Cn1nc(C(=O)N2CCCCC2)c2ccccc21
933 s	O=C(Nc1ccc(F)cc1)C1CCCN(S(=O)(=O)Cc2ccc(F)cc2)C1 (configuration not stated)
1100 s	CCc1ccc(NC(=O)C2CCN(S(=O)(=O)c3cc(-c4noc(C5CC5)n4)cs3)CC2)cc1
562 s	COc1ccc(CN2CCC3(CCC3O)CC2)cc1OC (configuration not stated)
882 s	Cn1c(=O)c2cc(C(=O)Nc3ccccc3Cl)cnc2n(-c2ccccc2)c1=O
1260 s	CCCOc1nc2ccccc2nc1N1CCCC(C(=O)Nc2cccc(OC)c2)C1 (configuration not stated)
784 s	COc1ccc(C(=O)N2CCN(c3ccc(=O)n(-c4cccc(Cl)c4)n3)CC2)cc1OC
678 s	COc1ccccc1CC(=O)Nc1cccn2c(C)nnc12
1190 s	CCn1c(C(=O)NCc2ccccc2Cl)cc2sc(Cl)cc21
685 s	COCCCNC(=O)C1c2cc(OC)c(OC)cc2C(=O)N(C)C1c1ccc(OC)cc1 (configuration not stated)
997 s	COc1ccc(Cl)cc1NC(=O)Cn1c2c(c(=O)n(C3CCCCC3)c1=O)CCC2
797 s	CCOC(=O)c1cccc(NC(=O)C2CCCN(c3nnc(C)c4c(C)n(-c5ccccc5)nc34)C2)c1 (configuration not stated)
814 s	Cc1ccc(C(=O)NCC(=O)Nc2cc(-c3nc(C)cs3)sc2C)cc1
692 s	CCOc1cc(-c2cccc(Cl)c2)nc2ccc(C(=O)N3CCN(c4ccccn4)CC3)cc12
889 s	COc1cc(OC)cc(C(=O)Nc2ccc(N3CCN(C4CCCCC4)C3=O)nc2)c1
1010 s	COc1ccc(OCC(=O)N2CCc3c(c(-c4nnc(-c5ccccc5Cl)o4)nn3C)C2)cc1
876 s	CCOC(=O)c1cc(S(=O)(=O)N2CCCC2C(=O)Nc2ccc3c(c2)OCO3)cn1C (configuration not stated)
892 s	Cc1ccc(Cl)cc1NC(=O)C1CCCN1S(=O)(=O)c1cc2c(cc1C)NC(=O)C(C)O2 (configuration not stated)
1170 s	COC(=O)c1ccc2c(=O)n(-c3ccccc3)c(N3CCCCC3)nc2c1
1050 s	Cc1cccc(-c2noc(C3CCCN3C(=O)Nc3cccc(F)c3)n2)c1 (configuration not stated)
1040 s	CCS(=O)(=O)N1CCCc2cc(C(=O)Nc3cc(OC)c(Cl)cc3OC)ccc21
716 s	CCn1ccc2sc(C)c(C(=O)NCc3cc(OC)ccc3OC)c2c1=O
